These results are taken from patent US20050197350A1, “Novel quinoline, tetrahydroquinazoline, and pyrimidine derivatives and methods of treatment related to the use thereof” (TAISHO PHARMACEUTICAL CO., LTD., priority 2003, published 2005).

Where two headings read alike, the source gives them in different places.

The assay has as its system MCH receptors. The assay can be described thus: MCH receptor activity class (method not given).
[1] abbreviates: MCH receptor, class by percent of control at 10^-7 M or IC50.
The mark [2] stands for this setting: activity class per percent of control at 10^-7 M or IC50.
[3] abbreviates: class by percent of control at 10^-7 M or IC50.
Setting [4] is: class by percent of control at 10^−7 M or IC50.
Setting [5] is: activity class 1-3: percent of control at 10^-7 M or IC50.

`CCSc1ncccc1C(=O)NC[C@H]1CC[C@@H](Nc2cc(N(C)C)c3ccccc3n2)CC1` [compound 163]: the class under setting [1] is 3 (Class 3 The value of percent of control at 10^−7 M was more than 60% or the value of IC50 was more than 200 nM.).

In the case of `CN(C)c1cc(N[C@H]2CC[C@@H](CNC(=O)c3cccc(Cl)c3F)CC2)nc2ccccc12` [compound 186], the class under setting [1] is 3 (Class 3 The value of percent of control at 10^−7 M was more than 60% or the value of IC50 was more than 200 nM.).

`CN(C)c1nc(N[C@H]2CC[C@@H](NC(=O)[C@H](CCCCNC(=O)c3ccccc3)NC(=O)c3ccccc3)CC2)nc2c1CCCC2` (relative stereo) [compound 980]: the class under setting [2] is given as 2 (Class 2: The value of percent of control at 10^−7 M was from 40% to 60% or the value of IC′50 was from 50 nM to 200 nM.).

Regarding `CN(C)c1cc(N[C@H]2CC[C@@H](CNC(=O)Cc3ccccc3Br)CC2)nc2ccccc12` [compound 207], the class under setting [1] was 3 (Class 3 The value of percent of control at 10^−7 M was more than 60% or the value of IC50 was more than 200 nM.).

For the compound `COc1cc(C)c(CNC[C@H]2CC[C@@H](Nc3nccc(N(C)C)n3)CC2)cc1C` [compound 1316], the class under setting [3] is on record as 2 (Class 2: The value of percent of control at 10^−7 M was from 40% to 60% or the value of IC′50 was from 50 nM to 200 nM.).

On to `COc1ccc(F)cc1CNC[C@H]1CC[C@@H](Nc2nc3c(c(N(C)C)n2)CCCC3)CC1` [compound 1415], for which the class under setting [3] is listed as 3 (Class 3 The value of percent of control at 10^−7 M was more than 60% or the value of IC50 was more than 200 nM.).

For `CN(C)c1cc(N[C@H]2CC[C@@H](CNC(=O)c3ccc(-c4ccccc4)cc3)CC2)nc2ccccc12` [compound 219], under setting [3], the class is 3 (Class 3 The value of percent of control at 10^−7 M was more than 60% or the value of IC50 was more than 200 nM.).

Take `Cc1cc(C(=O)NC[C@H]2CC[C@@H](Nc3nccc(N(C)C)n3)CC2)c(C)o1` [compound 416]: the class (class 1-3 by percent of control at 10^-7 M or IC50) is on record as 3 (Class 3 The value of percent of control at 10^−7 M was more than 60% or the value of IC50 was more than 200 nM.).

As to `CN(C)c1ccc(NC(=S)N[C@H]2CC[C@@H](Nc3nc4c(c(N(C)C)n3)CCCC4)CC2)cc1` [compound 2072], the class under setting [1] is on record as 3 (Class 3 The value of percent of control at 10^−7 M was more than 60% or the value of IC50 was more than 200 nM.).

For the compound `CN(C)c1ccnc(N[C@H]2CC[C@@H](NC(=S)Nc3ccc(Cl)cc3Cl)CC2)n1` [compound 2259], the class under setting [3] is reported as 3 (Class 3 The value of percent of control at 10^−7 M was more than 60% or the value of IC50 was more than 200 nM.).

As for `CN(C)c1ccnc(N[C@H]2CC[C@@H](CNC(=O)C3C[C@H]3c3ccccc3)CC2)n1` (stereo partly shown) [compound 391], under setting [3], the class is listed as 3 (Class 3 The value of percent of control at 10^−7 M was more than 60% or the value of IC50 was more than 200 nM.).

Take `CN(C)c1cc(N[C@H]2CC[C@@H](CNC(=O)c3csc4ccccc34)CC2)nc2ccccc12` [compound 218]: under setting [3], the class is listed as 3 (Class 3 The value of percent of control at 10^−7 M was more than 60% or the value of IC50 was more than 200 nM.).

Take `CCc1ccc(CNC[C@H]2CC[C@@H](Nc3nccc(N(C)C)n3)CC2)s1` [compound 1278]: the class under setting [3] is listed as 3 (Class 3 The value of percent of control at 10^−7 M was more than 60% or the value of IC50 was more than 200 nM.).

For `CCOc1ccccc1NC(=O)N[C@H]1CC[C@@H](Nc2nc(C)c(C)c(N(C)C)n2)CC1` [compound 2868], the class under setting [4] was 1 (Class 1: The value of percent of control at 10^−7 M was less than 40% or the value of IC50 was less than 50 nM.).

For `Cc1cnc(N[C@H]2CC[C@@H](NC(=O)c3ccccc3F)CC2)nc1N(C)C` [compound 2916], the class under setting [4] is 3 (Class 3 The value of percent of control at 10^−7 M was more than 60% or the value of IC50 was more than 200 nM.).

For the compound `COc1cccc(NC(=S)N[C@H]2CC[C@@H](Nc3nc4c(c(N(C)C)n3)CCCC4)CC2)c1` [compound 1986], under setting [1], the class is 3 (Class 3 The value of percent of control at 10^−7 M was more than 60% or the value of IC50 was more than 200 nM.).

Take `CN(C)c1cc(N[C@H]2CC[C@@H](CNC(=O)c3ccccc3Br)CC2)nc2ccccc12` [compound 220]: under setting [3], the class is listed as 3 (Class 3 The value of percent of control at 10^−7 M was more than 60% or the value of IC50 was more than 200 nM.).

`Cc1ccc(OC(=O)N[C@H]2CC[C@@H](Nc3cc(N(C)C)c4ccccc4n3)CC2)cc1` [compound 1554]: the class under setting [5] is 3 (Class 3 The value of percent of control at 10^−7 M was more than 60% or the value of IC50 was more than 200 nM.).

For `CN(C)c1ccnc(N[C@H]2CC[C@@H](NC(=O)Cc3c[nH]c4ccc(OCc5ccccc5)cc34)CC2)n1` [compound 887], the class under setting [3] is given as 3 (Class 3 The value of percent of control at 10^−7 M was more than 60% or the value of IC50 was more than 200 nM.).

In the case of `CCOC(=O)c1cccc(NC(=O)N[C@H]2CC[C@@H](Nc3nc4c(c(N(C)C)n3)CCCC4)CC2)c1` [compound 1697], the class under setting [5] is recorded as 3 (Class 3 The value of percent of control at 10^−7 M was more than 60% or the value of IC50 was more than 200 nM.).

As to `Cc1ccc(NC(=O)N[C@H]2CC[C@@H](Nc3nc4c(c(N(C)C)n3)CCCC4)CC2)cc1Cl` [compound 1841], the class under setting [3] is reported as 3 (Class 3 The value of percent of control at 10^−7 M was more than 60% or the value of IC50 was more than 200 nM.).

For the compound `Cc1cc(C)c(CNC[C@H]2CC[C@@H](Nc3nc4c(c(N(C)C)n3)CCCC4)CC2)c(C)c1` [compound 1423], the class under setting [3] is 3 (Class 3 The value of percent of control at 10^−7 M was more than 60% or the value of IC50 was more than 200 nM.).

Consider `COc1ccc2c(CC(=O)N[C@H]3CC[C@@H](Nc4cc(N(C)C)c5ccccc5n4)CC3)cc(=O)oc2c1` [compound 715], for which the class under setting [3] is given as 3 (Class 3 The value of percent of control at 10^−7 M was more than 60% or the value of IC50 was more than 200 nM.).

In the case of `COc1ccc(C(=O)N[C@H]2CC[C@@H](Nc3ncc(C)c(N(C)C)n3)CC2)cc1C(F)(F)F` [compound 2936, N-(cis-4-{[4-(dimethylamino)-5-methylpyrimidin-2-yl]amino}cyclohexyl)-4-methoxy-3-(trifluoromethyl)benzamide], the class under setting [4] is 1 (Class 1: The value of percent of control at 10^−7 M was less than 40% or the value of IC50 was less than 50 nM.).

Turning to `CN(C)c1cc(N[C@H]2CC[C@@H](NC(=O)c3ccc([N+](=O)[O-])o3)CC2)nc2ccccc12` [compound 111, N-(cis-4-{[4-(dimethylamino)quinolin-2-yl]amino}cyclohexyl)-5-nitro-2-furamide], the class under setting [1] was 1 (Class 1: The value of percent of control at 10^−7 M was less than 40% or the value of IC50 was less than 50 nM.).

In the case of `COc1ccc(NC(=S)N[C@H]2CC[C@@H](Nc3nccc(N(C)C)n3)CC2)c(OC)c1` [compound 2260], the class under setting [3] is 2 (Class 2: The value of percent of control at 10^−7 M was from 40% to 60% or the value of IC′50 was from 50 nM to 200 nM.).

Regarding `Cc1cc(N(C)C)nc(N[C@H]2CC[C@@H](C(=O)NCc3ccc(Cl)c(Cl)c3)CC2)n1` [Example 2581, cis-N-(3,4-dichlorobenzyl)-4-{[4-(dimethylamino)-6-methylpyrimidin-2-yl]amino}cyclohexanecarboxamide], the class turned out to be 1.

`COc1cc(CN[C@H]2CC[C@@H](Nc3cc(N(C)C)c4ccccc4n3)CC2)cc(OC)c1OC` [compound 1099]: the class under setting [2] is recorded as 3 (Class 3 The value of percent of control at 10^−7 M was more than 60% or the value of IC50 was more than 200 nM.).

As for `CN(C)c1nc(N[C@H]2CC[C@@H](NC(=O)c3c4ccccc4cc4ccccc34)CC2)nc2c1CCCC2` [compound 1029], the class under setting [2] is reported as 3 (Class 3 The value of percent of control at 10^−7 M was more than 60% or the value of IC50 was more than 200 nM.).

Regarding `Cc1cccc([N+](=O)[O-])c1NC(=O)NC[C@H]1CC[C@@H](Nc2cc(N(C)C)c3ccccc3n2)CC1` [compound 2401], the class (MCH receptor activity class 1-3 (percent of control at 10^-7 M or IC50)) is 3 (Class 3 The value of percent of control at 10^−7 M was more than 60% or the value of IC50 was more than 200 nM.).

For `CCOc1ccc(C(=O)N[C@H]2CC[C@@H](Nc3nc(C)cc(N(C)C)n3)CC2)cc1` [compound 2971], the class under setting [4] is 3 (Class 3 The value of percent of control at 10^−7 M was more than 60% or the value of IC50 was more than 200 nM.).

With `CN(C)c1ccnc(N[C@H]2CC[C@@H](CNC(=O)Cc3ccccc3)CC2)n1` [compound 390], the class under setting [3] is recorded as 3 (Class 3 The value of percent of control at 10^−7 M was more than 60% or the value of IC50 was more than 200 nM.).

Regarding `COc1ccc(F)cc1CNC[C@H]1CC[C@@H](Nc2cc(N(C)C)c3ccccc3n2)CC1` [compound 1173], under setting [3], the class is on record as 3 (Class 3 The value of percent of control at 10^−7 M was more than 60% or the value of IC50 was more than 200 nM.).

With `CN(C)c1nc(N[C@H]2CC[C@@H](NC(=S)NCC3CCCO3)CC2)nc2c1CCCC2` (relative stereo) [compound 1958], the class under setting [1] is 3 (Class 3 The value of percent of control at 10^−7 M was more than 60% or the value of IC50 was more than 200 nM.).

With `CN(C)c1nc(N[C@H]2CC[C@@H](CNCc3ccc4c(c3)OCCO4)CC2)nc2c1CCCC2` [compound 1384], the class under setting [3] is reported as 3 (Class 3 The value of percent of control at 10^−7 M was more than 60% or the value of IC50 was more than 200 nM.).

In the case of `CSc1ccc(CN[C@H]2CC[C@@H](Nc3nc4c(c(N(C)C)n3)CCCC4)CC2)cc1` [compound 1360], under setting [3], the class was 3 (Class 3 The value of percent of control at 10^−7 M was more than 60% or the value of IC50 was more than 200 nM.).

For `CN(C)c1cc(N[C@H]2CC[C@@H](NC(=O)COc3ccc(Cl)cc3)CC2)nc2ccccc12` [compound 96], the class under setting [1] was 1 (Class 1: The value of percent of control at 10^−7 M was less than 40% or the value of IC50 was less than 50 nM.).
